Experiments:
Class A ESBL CTXM-15 = molecular target: T1, Class A ESBL CTXM-15 (Escherichia coli, UniProt Q9EXV5); assay: β-lactamase enzyme inhibition (nitrocefin hydrolysis), CTXM-15; format: biochemical; details: purified enzyme; nitrocefin 100 μM, PBS pH 7.0; read-out: CTXM-15 IC50 Range
T1 construct: made in house; host or cells: E. coli BL21(DE3)
In short: (§1)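 Native untagged enzymes were expressed in E. coli BL21(DE3) and purified by cation exchange and gel filtration. Compound series (100–0.005 μM in PBS pH 7.0, before addition of an equal enzyme volume) were preincubated with enzyme 10 min at 37°C. Nitrocefin (100 μM final) hydrolysis was read kinetically at 486 nm for 10 min, and IC50 was taken as 50% reduction of initial rate versus no-inhibitor wells.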

Class C P99 AmpC = molecular target: T2, Class C P99 AmpC (Enterobacter cloacae, UniProt P05364); format: biochemical; details: purified enzyme; nitrocefin 100 μM, PBS pH 7.0; read-out: P99 AmpC IC50 Range
T2 construct: made in house; host or cells: E. coli BL21(DE3)
T2 sequence (P05364 21-381): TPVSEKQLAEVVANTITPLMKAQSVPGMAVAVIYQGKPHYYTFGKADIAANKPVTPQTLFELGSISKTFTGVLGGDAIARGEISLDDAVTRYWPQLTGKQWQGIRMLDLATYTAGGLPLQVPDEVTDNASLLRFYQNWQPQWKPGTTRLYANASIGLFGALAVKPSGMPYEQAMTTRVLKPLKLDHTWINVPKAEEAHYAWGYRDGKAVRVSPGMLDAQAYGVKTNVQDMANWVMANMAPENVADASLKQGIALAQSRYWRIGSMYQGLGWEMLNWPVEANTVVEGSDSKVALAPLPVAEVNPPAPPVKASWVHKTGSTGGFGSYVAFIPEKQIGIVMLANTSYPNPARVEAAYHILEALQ
In short: as §1

[1] = test system: E. cloacae expressing the Class C P99+ AmpC; assay: microbe, parasite or virus in culture; format: cell-based; details: in the presence of fixed 8 μg/mL Ceftazidime
From the text: To determine the ability of test compounds to potentiate the inhibition of the growth of bacterial strains producing beta-lactamase enzymes, classic cell based screening assays were employed. Four bacteria strains producing beta-lactamase enzymes were used: K. pneumoniae expressing the Class A Extended Spectrum Beta-Lactamase (ESBL) CTX-M-15, E. coli expressing the Class A ESBL SHV-5, E. cloacae expressing the Class C P99+, and K. pneumoniae expressing the Class A carbapenemase KPC-2. In order to evaluate the ability of test compounds to inhibit beta-lactamase activity, Applicants used a modification of the broth microdilution assay. The assay was conducted in Cation Adjusted Mueller Hinton Broth (CAMHB, BD # 212322, BD Diagnostic Systems, Sparks, Md.). Bacteria strains were grown for 3-5 hours in CAMBH broth. All four strains were grown in presence of 50 μg/mL ampicillin to ensure resistance is maintained. In the meantime, test compounds were diluted in DMSO to a 0.1 mg/mL stock. The compounds were added to a microtiter plate and were diluted in 2-fold serial dilutions in CAMHB in a final concentration range of 8 μg/mL to 0.015 μg/ml. An overlay of CAMHB containing a cephalosporin was added to the compounds at a final static concentration of 8 μg/ml. […] Each of these compound plates are made in quadruplicate, one for each bacteria strain. In addition to the titration of test compounds the MICs of a panel of cephalosporins is also tested to ensure the strains are behaving consistently from test to test. Once the test compound and cephalosporin are added the plates can be inoculated. Inocula are conducted according to CLSI broth microdilution method. After inoculation the plates are incubated for 16-20 hours at 37° C. then the Minimal Inhibitory Concentration (MIC) of the test compound is determined visually.

[2] = test system: K. pneumoniae expressing the Class A carbapenemase KPC-2; assay: microbe, parasite or virus in culture; details: in the presence of fixed 8 μg/mL Ceftazidime
[3] = test system: K. pneumoniae expressing the Class A ESBL CTX-M-15; assay: microbe, parasite or virus in culture; format: cell-based; details: in the presence of fixed 8 μg/mL Ceftazidime
Class A ESBL SHV-5 = molecular target: T3, Class A ESBL SHV-5 (Klebsiella pneumoniae, UniProt P0A3M1); format: biochemical, E. coli; details: cellular extracts of E. coli containing SHV-5 (Examples 2-30); nitrocefin 100 μM, PBS pH 7.0; read-out: SHV-5 IC50 Range
T3 construct: made in house; host or cells: E. coli BL21(DE3) for purified enzyme; E. coli cells containing SHV-5 for extracts
T3 sequence (P0A3M1 22-286): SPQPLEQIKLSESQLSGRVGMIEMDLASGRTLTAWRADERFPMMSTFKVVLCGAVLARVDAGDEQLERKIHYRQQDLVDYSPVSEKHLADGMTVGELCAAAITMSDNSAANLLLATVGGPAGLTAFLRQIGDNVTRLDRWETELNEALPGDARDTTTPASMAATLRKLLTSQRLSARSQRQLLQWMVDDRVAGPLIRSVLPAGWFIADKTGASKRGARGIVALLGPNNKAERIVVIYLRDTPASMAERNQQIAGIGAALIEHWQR

[4] = molecular target: T4, Class A carbapenemase KPC-2 (Klebsiella pneumoniae, UniProt Q9F663); assay: β-lactamase enzyme inhibition (nitrocefin hydrolysis), KPC-2; format: biochemical; details: purified enzyme; nitrocefin 100 μM, PBS pH 7.0; read-out: KPC-2 IC50 Range
T4 construct: made in house; host or cells: E. coli BL21(DE3)
T4 sequence (Q9F663 25-293 limits assumed): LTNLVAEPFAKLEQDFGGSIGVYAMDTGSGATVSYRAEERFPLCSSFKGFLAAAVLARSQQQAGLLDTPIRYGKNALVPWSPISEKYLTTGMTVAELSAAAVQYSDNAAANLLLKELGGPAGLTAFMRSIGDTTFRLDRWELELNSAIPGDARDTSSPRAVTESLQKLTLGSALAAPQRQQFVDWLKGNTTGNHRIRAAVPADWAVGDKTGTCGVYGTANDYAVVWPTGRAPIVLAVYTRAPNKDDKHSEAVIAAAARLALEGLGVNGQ
In short: as §1

T1 sequence (Q9EXV5 entry or part of it): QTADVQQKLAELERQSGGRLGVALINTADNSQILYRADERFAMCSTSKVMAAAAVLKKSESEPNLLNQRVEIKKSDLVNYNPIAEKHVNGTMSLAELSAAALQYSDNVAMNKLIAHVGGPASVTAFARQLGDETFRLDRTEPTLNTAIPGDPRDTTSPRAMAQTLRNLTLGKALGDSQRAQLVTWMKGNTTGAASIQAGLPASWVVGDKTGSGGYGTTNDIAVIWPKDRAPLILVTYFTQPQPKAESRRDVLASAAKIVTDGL

Compound	IC50 (Class A ESBL CTXM-15)	IC50 (Class C P99 AmpC)	MIC of example compound, E. cloacae P99 AmpC + 8 μg/mL CAZ [1]	MIC of example compound, K. pneumoniae KPC-2 + 8 μg/mL CAZ [2]	MIC of example compound, K. pneumoniae CTX-M-15 + 8 μg/mL CAZ [3]	IC50 (Class A ESBL SHV-5)	IC50 [4]
O=C(CCC(=O)c1cccs1)N[C@@H](Cc1cccc(C(=O)O)c1O)B(O)O [Example 5, (1R)-1-(4-Oxo-4-thiophen-2-yl-butyrylamino)-2-(2-hydroxy-3-carboxyphenyl)ethyl-1-boronic acid]	< 10 nM	< 10 nM	C (C represents an MIC of <1 μg/mL)	C (C represents an MIC of <1 μg/mL)	C (C represents an MIC of <1 μg/mL)	< 10 nM	
O=C(N[C@@H](Cc1cccc(C(=O)O)c1O)B(O)O)c1cccs1 [Example 11, (1R)-1-(thiophene-2-carbonyl-amino)-2-(2-hydroxy-3-carboxyphenyl)ethyl-1-boronic acid]	< 10 nM	< 10 nM	C (C represents an MIC of <1 μg/mL)	C (C represents an MIC of <1 μg/mL)	C (C represents an MIC of <1 μg/mL)	10 to 100 nM	
O=C(N[C@@H](Cc1cccc(C(=O)O)c1O)B(O)O)c1ccccc1 [Example 13, (1R)-1-Benzoylamino-1-(3-carboxy-2-hydroxy)benzyl-methylboronic acid]	10 to 100 nM	< 10 nM	C (C represents an MIC of <1 μg/mL)	C (C represents an MIC of <1 μg/mL)	C (C represents an MIC of <1 μg/mL)	10 to 100 nM	< 10 nM
CC(C)C(=O)N[C@@H](Cc1cccc(C(=O)O)c1O)B(O)O [Example 14, (1R)-1-Isobutyrylamino-1-(3-carboxy-2-hydroxy)benzyl-methylboronic acid]	10 to 100 nM	< 10 nM	C (C represents an MIC of <1 μg/mL)	C (C represents an MIC of <1 μg/mL)	C (C represents an MIC of <1 μg/mL)	100 to 1000 nM	
O=C(O)c1cccc(C[C@H](NC(=O)C2CCCC2)B(O)O)c1O [Example 15, (1R)-1-Cyclopentanecarbonylamino-(3-carboxy-2-hydroxy)benzyl-methylboronic acid]	10 to 100 nM	< 10 nM	C (C represents an MIC of <1 μg/mL)	C (C represents an MIC of <1 μg/mL)	C (C represents an MIC of <1 μg/mL)	100 to 1000 nM	
CCC(=O)N[C@@H](Cc1cccc(C(=O)O)c1O)B(O)O [Example 16, (1R)-1-(propionylamino)-2-(2-hydroxy-3-carboxyphenyl)ethyl-1-boronic acid]	10 to 100 nM	10 to 100 nM	C (C represents an MIC of <1 μg/mL)	C (C represents an MIC of <1 μg/mL)	C (C represents an MIC of <1 μg/mL)	100 to 1000 nM	10 to 100 nM
O=C(O)c1cccc(C[C@H](NC(=O)C2CC2)B(O)O)c1O [Example 20, (1R)-1-Cyclopropanecarbonyl-amino-1-(3-carboxy-2-hydroxy)benzyl-methylboronic acid]	< 10 nM	< 10 nM	C (C represents an MIC of <1 μg/mL)	C (C represents an MIC of <1 μg/mL)	C (C represents an MIC of <1 μg/mL)	100 to 1000 nM	10 to 100 nM
